Results taken from EP1561465A2, “Methods of use of fluoroquinolone compounds against bacteria” (LG Life Sciences, Ltd., priority 1999, dated 2001).
Values after ≈ are worked out from the molar mass of the structure shown. Read-outs that look alike come from different tables or passages of the source.

Legend:
Format in all cases: cell-based
Haemophilus influenzae = experiment: MIC by NCCLS reference broth microdilution, 450 respiratory tract pathogens; conditions: Haemophilus influenzae; for MIC90: read-out: MIC90
Enterococcus gallinarum = experiment: MIC by NCCLS broth microdilution, 1100 Japanese clinical isolates 1997-1998; conditions: Enterococcus gallinarum, GALLINARUM, Enterococcus gallinarum (vanC1), read-out: MIC
Aeromonas spp. = experiment: MIC by agar dilution (NCCLS M7-A4), 288 enteropathogenic isolates, gemifloxacin and 15 other antimicrobials; conditions: Aeromonas spp. N= 16
Streptococcus pneumoniae [1] = experiment: MIC by broth microdilution (NCCLS), dried MicroScan panels, clinical isolates 1998-1999; conditions: for MIC90: Streptococcus pneumoniae
Streptococcus pneumoniae [2] = experiment: MIC by NCCLS broth microdilution, 1100 Japanese clinical isolates 1997-1998; conditions: for MIC50 / MIC90 / MIC: Streptococcus pneumoniae; for MIC50: read-out: MIC50; for MIC90: read-out: MIC90; for MIC: Streptococcus pneumoniae quinolone resistant
Salmonella spp. = experiment: MIC by agar dilution (NCCLS M7-A4), 288 enteropathogenic isolates, eight quinolones; conditions: for MIC: ciprofloxacin MIC ≥[…], read-out: MIC
Shigella spp. = experiment: MIC by NCCLS broth microdilution, 1100 Japanese clinical isolates 1997-1998; conditions: Shigella spp. (n=34)
Streptococcus pneumoniae [3] = experiment: MIC by agar dilution (NCCLS), 411 isolates Buenos Aires 1998-99; conditions: for MIC / MIC90: Streptococcus pneumoniae; for MIC: Ciprofloxacin-resistant S. pneumoniae, read-out: MIC; for MIC90: read-out: MIC90
[4] = Streptococcus pneumoniae (302 isolates)
[5] = Streptococcus pneumoniae amoxicillin resistant (n=40)
[6] = Streptococcus pneumoniae amoxicillin susceptible (n=35)
[7] = Streptococcus pneumoniae erythromycin resistant (n=34)
[8] = Streptococcus pneumoniae erythromycin susceptible (n=11)
[9] = Streptococcus pneumoniae (n = 90)

## C[C@H]1COc2c(N3CCN(C)CC3)c(F)cc3c(=O)c(C(=O)O)cn1c23 [Levofloxacin, levofloxacin]
Haemophilus influenzae; β-lactamase negative (n = 80)
  MIC90: 0.015 µg/mL (≈ 0.0415 µM)
Haemophilus influenzae; β-lactamase positive (n = 20)
  MIC: 0.0075 to 0.03 µg/mL (≈ 0.0208 to 0.083 µM)
  MIC50: 0.015 µg/mL (≈ 0.0415 µM)
  MIC90: 0.03 µg/mL (≈ 0.083 µM)
Enterococcus gallinarum; strain TMS1
  MIC: 1 µg/mL (≈ 2.77 µM)
Enterococcus gallinarum; strain TMS2
  MIC: 2 µg/mL (≈ 5.53 µM)
Enterococcus gallinarum; strain TMS3
  MIC: 1 µg/mL (≈ 2.77 µM)
Enterococcus gallinarum; strain TMS4
  MIC: 0.5 µg/mL (≈ 1.38 µM)
Aeromonas spp.
  MIC (mg/L) Range: ≤0.015 to 0.06 mg/L
Aeromonas spp.; read-out: MIC (mg/L) 50%
  MIC: ≤ 0.015 mg/L
Aeromonas spp.; read-out: MIC (mg/L) 90%
  MIC: ≤ 0.015 mg/L
Streptococcus pneumoniae [1]; [4]
  MIC50: 1 µg/mL (≈ 2.77 µM)
  MIC Range: ≤0.015 to 2 µg/mL
  MIC90: 1 µg/mL (≈ 2.77 µM)
Streptococcus pneumoniae [1]; Erythromycin-resistant (86)
  MIC90: 1 µg/mL (≈ 2.77 µM)
Streptococcus pneumoniae [1]; Erythromycin-sensitive (216)
  MIC90: 2 µg/mL (≈ 5.53 µM)
Streptococcus pneumoniae [1]; Penicillin-intermediate (124)
  MIC90: 1 µg/mL (≈ 2.77 µM)
Streptococcus pneumoniae [1]; Penicillin-resistant (80)
  MIC90: 1 µg/mL (≈ 2.77 µM)
Streptococcus pneumoniae [1]; Penicillin-sensitive (98)
  MIC90: 1 µg/mL (≈ 2.77 µM)
Streptococcus pneumoniae [2]; [5]
  MIC Range: 0.5 to 8 µg/mL
  MIC50: 1 µg/mL (≈ 2.77 µM)
  MIC90: 1 µg/mL (≈ 2.77 µM)
Streptococcus pneumoniae [2]; [6]
  MIC Range: 0.063 to 8 µg/mL
  MIC50: 1 µg/mL (≈ 2.77 µM)
  MIC90: 1 µg/mL (≈ 2.77 µM)
Streptococcus pneumoniae [2]; [7]
  MIC Range: 0.063 to 8 µg/mL
  MIC50: 1 µg/mL (≈ 2.77 µM)
  MIC90: 1 µg/mL (≈ 2.77 µM)
Streptococcus pneumoniae [2]; [8]
  MIC Range: 0.5 to 1 µg/mL
  MIC50: 1 µg/mL (≈ 2.77 µM)
  MIC90: 1 µg/mL (≈ 2.77 µM)
Streptococcus pneumoniae [2]; strain TMS1
  MIC: 1 µg/mL (≈ 2.77 µM)
Streptococcus pneumoniae [2]; strain TMS2
  MIC: 16 µg/mL (≈ 44.3 µM)
Salmonella spp.; S. hadar (n = 2)
  MIC: 1 µg/mL (≈ 2.77 µM)
Salmonella spp.; S. newport (n = 1)
  MIC: 1 µg/mL (≈ 2.77 µM)
Salmonella spp.; S. virchow (n = 2)
  MIC: 0.25 µg/mL (≈ 0.692 µM)
Salmonella spp.; Salmonella spp. (n = 106)
  % Susceptible: 100%
  MIC50: 0.06 µg/mL (≈ 0.166 µM)
  MIC90: 0.25 µg/mL (≈ 0.692 µM)
  MIC Range: 0.06 to 1 µg/mL
Salmonella spp.; Salmonella, S. tshiongwe (n = 1)
  MIC: 1 µg/mL (≈ 2.77 µM)
Shigella spp.
  MIC50: 0.016 µg/mL (≈ 0.0443 µM)
  MIC90: 0.063 µg/mL (≈ 0.174 µM)
  MIC Range: 0.016 to 0.063 µg/mL
Streptococcus pneumoniae [3]; [9]
  MIC Range: 0.25 to 4 µg/mL
  MIC90: 1 µg/mL (≈ 2.77 µM)
Streptococcus pneumoniae [3]; Strain 1
  MIC: 1 µg/mL (≈ 2.77 µM)
Streptococcus pneumoniae [3]; Strain 2
  MIC: 1 µg/mL (≈ 2.77 µM)
Streptococcus pneumoniae [3]; Strain 3
  MIC: 4 µg/mL (≈ 11.1 µM)
Streptococcus pneumoniae [3]; Strain 4
  MIC: 2 µg/mL (≈ 5.53 µM)
Streptococcus pneumoniae [3]; S. pneumoniae, Penicillin intermediate (n = 17)
  MIC90: 1 µg/mL (≈ 2.77 µM)
Streptococcus pneumoniae [3]; S. pneumoniae, Penicillin resistant (n = 4)
  MIC90: 1 µg/mL (≈ 2.77 µM)
Streptococcus pneumoniae [3]; S. pneumoniae, Penicillin susceptible (n = 69)
  MIC90: 1 µg/mL (≈ 2.77 µM)
